Reference: publication PMC7099630 (Bioanalysis, 2016)

Key:
[1] = PK study in Wuzhishan miniature pigs after a single oral dose, plasma by HILIC-MS/MS; type: in vivo, Wuzhishan miniature pig; details: average, single oral dose 0.2 g
Procedure: Two ordinary grade, healthy, Wuzhishan miniature pig (6–8 months old, 7–9 kg) were purchased from Pearl Laboratory Animal Sci. & Tech. Co., Ltd (Dongguan, China) and maintained on standard food and water. The pigs were housed in individual cages and identified by ear tags. […] Blood samples (1.5 ml) were collected in heparinized tubes via the precaval or pelvic vein before medication and 0.5, 1, 2, 4, 6, 8, 12, 24, 36, 48, 72, 96 and 120 h after drug administration. All blood samples were immediately centrifuged at 2000 × g for 15 min (Centrifuge 5418, Eppendorf) and then stored at −70°C before analysis. The maximum plasma concentration (Cmax) and time of occurrence (tmax) were read directly from the concentration-time curve. Other PK parameters were calculated with DAS 3.2.4 software, using a noncompartmental model.

[2] = Stability of chloroquine in miniature pig plasma QC samples under different storage conditions; type: in vitro ADME
Procedure: Mimic pig plasma samples at LQC and HQC levels were analyzed along with freshly spiked calibration standards to obtain calculated concentrations.
Benchtop stability was evaluated by allowing QC samples to stand for 6 h prior to preparation. Unextracted QC samples were stored at -20°C for 40 days before extraction to test long-term stability. To analyze freeze–thaw stability, QC samples were stored at -20°C and then allowed to thaw to room temperature for three cycles. Processed QC samples were allowed to stand in the autosampler for 24 h before analysis to determine whether an occasional delay in injection, or reinjection of extracted samples, would lead to degradation.

[3] = Stock solution stability of chloroquine; type: physicochemical; details: 40 days at -20°C vs freshly prepared, read-out: Solution stability (40 day), Recovery (mean ± SD, %)
[4] = Stability of chloroquine in miniature pig plasma QC samples under different storage conditions; type: in vitro ADME; details: miniature pig plasma (spiked QC samples), plasma QC standing prior to preparation, read-out: Benchtop stability (8 h), Recovery (mean ± SD, %)
[5] = healthy miniature pigs, noncompartmental model

AUC(0-inf) ([1]; Wuzhishan miniature pig, pig, plasma, healthy miniature pigs, noncompartmental model): 380 ng·h/mL
half-life ([1]; Wuzhishan miniature pig, pig, plasma, healthy miniature pigs, noncompartmental model, read-out: elimination t1/2 (converted)): 1010 min
Cmax ([1]; Wuzhishan miniature pig, pig, healthy miniature pigs (two animals), plasma): 15 ng/mL
Tmax ([1]; Wuzhishan miniature pig, pig, healthy miniature pigs, plasma): 3 h
CL/F [1, 5]: 54.15 L/h
V/F [1, 5]: 1543.82 L
stability of prepared samples after storage in the autosampler ([2]; 24 h in autosampler): stable
time stable during bench top preparation ([2]; miniature pig plasma): at least 6 h
time stable on storage at −20°C ([2]; miniature pig plasma): at least 40 days
recovery at 75 ng/ml ([2]; miniature pig, miniature pig plasma (spiked QC samples), HQC (75 ng/ml), -20°C to room temperature, three cycles, read-out: Freeze–thaw stability (3 cycles), Recovery (mean ± SD, %)): 106 ± 1.07%
recovery at 40 day, 75 ng/ml ([2]; miniature pig, miniature pig plasma (spiked QC samples), HQC (75 ng/ml), unextracted plasma QC stored at -20°C for 40 days, read-out: Long-term stability (40 day), Recovery (mean ± SD, %)): 104.3 ± 1.04%
recovery at 3 ng/ml ([2]; miniature pig, miniature pig plasma (spiked QC samples), LQC (3 ng/ml), -20°C to room temperature, three cycles, read-out: Freeze–thaw stability (3 cycles), Recovery (mean ± SD, %)): 106 ± 9.74%
recovery at 40 day, 3 ng/ml ([2]; miniature pig, miniature pig plasma (spiked QC samples), LQC (3 ng/ml), unextracted plasma QC stored at -20°C for 40 days, read-out: Long-term stability (40 day), Recovery (mean ± SD, %)): 106 ± 3.35%
recovery at 24 h, 75 ng/ml ([2]; miniature pig, HQC (75 ng/ml), processed samples in autosampler for 24 h, read-out: Processed stability (24 h), Recovery (mean ± SD, %)): 105.7 ± 0.34%
recovery at 24 h, 3 ng/ml ([2]; miniature pig, LQC (3 ng/ml), processed samples in autosampler for 24 h, read-out: Processed stability (24 h), Recovery (mean ± SD, %)): 98.9 ± 1.08%
recovery at 40 day, 75 ng/ml ([3]; HQC (75 ng/ml)): 103 ± 2.46%
recovery at 40 day, 3 ng/ml ([3]; LQC (3 ng/ml)): 102 ± 6.75%
recovery at 8 h, 75 ng/ml ([4]; HQC (75 ng/ml)): 103.5 ± 1%
recovery at 8 h, 3 ng/ml ([4]; LQC (3 ng/ml)): 104 ± 1.33%
Compound: CCN(CC)CCCC(C)Nc1ccnc2cc(Cl)ccc12 (stereo not shown) [chloroquine, N’-(7-chloro-4-quinolyl)-N,N-diethyl-pentane-1,4-diamine]
